# Test system: IL-8 cytokine release
# Experiment: IL-8 assay: TNFα-induced IL-8 cytokine release from topically treated epidermal equivalents (EPI 200 HCF)
# Assay type: cell-based, human
# Conditions: ester added to 4-hexyl resorcinol-containing composition; result in words
# Experimental: An IL-8 assay was performed on the compositions of Example I to investigate the release of pro-inflammatory mediators in human epithelial cells as follows.
# Epidermal equivalents (EPI 200 HCF), multilayer and differentiated epidermis consisting of normal human epidermal keratinocytes, were purchased from MatTek (Ashland, Mass.). Upon receipt, epidermal equivalents were incubated for 24 hours at 37° C. in maintenance medium without hydrocortisone. Equivalents were topically treated (2 mg/cm^2) with formulation in example 1 for 2 hours before exposure to 100 ng/mL of Tumor Necrosis Factor-α (TNFα, available from Sigma-Aldrich of St Louis, Mo.). Equivalents were incubated for 4 hours at 37° C. with maintenance medium then supernatants were analyzed for IL-8 cytokine release using commercially available kits (Upstate Biotechnology, Charlottesville, Va.). Percent Reduction in IL-8 was calculated for the compositions relative to Comparative Composition C1 (without ester): Percent Reduction=[1−(Valuesample/Valuebase)]×100 where Valuesample was the IL-8 level of the composition tested and Valuebase was the IL-8 value of Comparative Composition C1.
# Additional IL-8 Assays were performed as described in Example II. Compositions (described in Table 2) containing 4-hexyl resorcinol with different esters, each present at 3% by weight, were compared with Composition 6 according to the invention containing 3% by weight pentaerythritol tetraethylhexanoate.
row,Compound,boost in the activity (IL-8 inhibition) of 4-hexyl resorcinol over compositions without the ester
1,isononyl isonanoate,only a modest boost or no boost at all
2,CCCCC(CC)C(=O)OCC(COC(=O)C(CC)CCCC)(COC(=O)C(CC)CCCC)COC(=O)C(CC)CCCC (stereo not shown) [pentaerythritol tetraethylhexanoate],substantial boost
3,octyldodecyl neopentanoate,substantial boost
4,CCCCCCC(=O)OCC(C)(C)COC(=O)CCCCCC [neopentyl glycol diheptanoate],only a modest boost or no boost at all
